Assay results from PubChem BioAssay AID1845194 (Molecular Pharmacology Branch, DTP, NCI, 2023).

Test system: 287954-098-R-J1 tumor spheroid viability
Test: Anticancer human tumor 287954-098-R-J1 patient-derived Ewing sarcoma cell line growth inhibition
Settings: spheroids with HUVEC and MSC; for IC50: curve of first compound; for viability, T/C: stronger effect = lower value
In short: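 Complex spheroids of malignant cells with endothelial cells and mesenchymal stem cells; agents alone or combined, from near clinical Cmax (or 10 microM if unknown) down in half-log steps, 0.25% DMSO final.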
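Note: spheroids exposed to compound for 7 days before viability readout.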
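Throughout, for viability, T/C: luminescent signal taken as surrogate of viable cell content; 100% = DMSO vehicle control viability and lower means growth inhibition.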

CC(C)n1c(=O)n(C)c2cnc3cc(F)c(-c4ccc(OCCCN5CCCCC5)nc4)cc3c21 + CC[C@@]1(O)C(=O)OCc2c1cc1n(c2=O)Cc2cc3c(CN(C)C)c(O)ccc3nc2-1
IC50 (second compound 0.003 µM): < 0.0316 µM
IC50 (second compound 0.00949 µM): < 0.0316 µM
IC50 (second compound 0.03 µM): < 0.0316 µM
IC50 (second compound 0.0949 µM): < 0.0316 µM
IC50 (second compound 0.3 µM): < 0.0316 µM
viability, T/C (second compound 0.003 µM, first compound 0.0316 µM): 24.4%
viability, T/C (second compound 0.003 µM, first compound 0.1 µM): 25.2%
viability, T/C (second compound 0.003 µM, first compound 0.316 µM): 14.1%
viability, T/C (second compound 0.003 µM, first compound 1 µM): 18%
viability, T/C (second compound 0.003 µM, first compound 3.16 µM): 18.6%
viability, T/C (second compound 0.003 µM, first compound 10 µM): 0.6%
viability, T/C (second compound 0.00949 µM, first compound 0.0316 µM): 1.98%
viability, T/C (second compound 0.00949 µM, first compound 0.1 µM): 1.84%
viability, T/C (second compound 0.00949 µM, first compound 0.316 µM): 1.79%
viability, T/C (second compound 0.00949 µM, first compound 1 µM): 1.85%
viability, T/C (second compound 0.00949 µM, first compound 3.16 µM): 1.45%
viability, T/C (second compound 0.00949 µM, first compound 10 µM): 0.25%
viability, T/C (second compound 0.03 µM, first compound 0.0316 µM): 1.57%
viability, T/C (second compound 0.03 µM, first compound 0.1 µM): 1.36%
viability, T/C (second compound 0.03 µM, first compound 0.316 µM): 1.48%
viability, T/C (second compound 0.03 µM, first compound 1 µM): 1.56%
viability, T/C (second compound 0.03 µM, first compound 3.16 µM): 1.35%
viability, T/C (second compound 0.03 µM, first compound 10 µM): 0.27%
viability, T/C (second compound 0.0949 µM, first compound 0.0316 µM): 1.39%
viability, T/C (second compound 0.0949 µM, first compound 0.1 µM): 1.29%
viability, T/C (second compound 0.0949 µM, first compound 0.316 µM): 1.62%
viability, T/C (second compound 0.0949 µM, first compound 1 µM): 1.24%
viability, T/C (second compound 0.0949 µM, first compound 3.16 µM): 1.02%
viability, T/C (second compound 0.0949 µM, first compound 10 µM): 0.43%
viability, T/C (second compound 0.3 µM, first compound 0.0316 µM): 1.39%
viability, T/C (second compound 0.3 µM, first compound 0.1 µM): 1.68%
viability, T/C (second compound 0.3 µM, first compound 0.316 µM): 1.34%
viability, T/C (second compound 0.3 µM, first compound 1 µM): 1.48%
viability, T/C (second compound 0.3 µM, first compound 3.16 µM): 1.35%
viability, T/C (second compound 0.3 µM, first compound 10 µM): 0.58%

Cc1cc(C)c(CNC(=O)c2cc(-c3ccc(CN4CCOCC4)cc3)cc3c2cnn3C2CCCC2)c(=O)[nH]1 + Cn1nnc2c(C(N)=O)ncn2c1=O
IC50 (second compound 1 µM): > 10 µM
IC50 (second compound 3.16 µM): > 10 µM
IC50 (second compound 10 µM): > 10 µM
IC50 (second compound 31.6 µM): > 10 µM
IC50 (second compound 100 µM): > 10 µM
viability, T/C (second compound 1 µM, first compound 0.0316 µM): 104%
viability, T/C (second compound 1 µM, first compound 0.1 µM): 100%
viability, T/C (second compound 1 µM, first compound 0.316 µM): 100%
viability, T/C (second compound 1 µM, first compound 1 µM): 103%
viability, T/C (second compound 1 µM, first compound 3.16 µM): 105%
viability, T/C (second compound 1 µM, first compound 10 µM): 115%
viability, T/C (second compound 3.16 µM, first compound 0.0316 µM): 105%
viability, T/C (second compound 3.16 µM, first compound 0.1 µM): 107%
viability, T/C (second compound 3.16 µM, first compound 0.316 µM): 100%
viability, T/C (second compound 3.16 µM, first compound 1 µM): 108%
viability, T/C (second compound 3.16 µM, first compound 3.16 µM): 107%
viability, T/C (second compound 3.16 µM, first compound 10 µM): 108%
viability, T/C (second compound 10 µM, first compound 0.0316 µM): 110%
viability, T/C (second compound 10 µM, first compound 0.1 µM): 108%
viability, T/C (second compound 10 µM, first compound 0.316 µM): 107%
viability, T/C (second compound 10 µM, first compound 1 µM): 106%
viability, T/C (second compound 10 µM, first compound 3.16 µM): 99.3%
viability, T/C (second compound 10 µM, first compound 10 µM): 111%
viability, T/C (second compound 31.6 µM, first compound 0.0316 µM): 108%
viability, T/C (second compound 31.6 µM, first compound 0.1 µM): 117%
viability, T/C (second compound 31.6 µM, first compound 0.316 µM): 109%
viability, T/C (second compound 31.6 µM, first compound 1 µM): 105%
viability, T/C (second compound 31.6 µM, first compound 3.16 µM): 108%
viability, T/C (second compound 31.6 µM, first compound 10 µM): 105%
viability, T/C (second compound 100 µM, first compound 0.0316 µM): 108%
viability, T/C (second compound 100 µM, first compound 0.1 µM): 113%
viability, T/C (second compound 100 µM, first compound 0.316 µM): 111%
viability, T/C (second compound 100 µM, first compound 1 µM): 107%
viability, T/C (second compound 100 µM, first compound 3.16 µM): 96.2%
viability, T/C (second compound 100 µM, first compound 10 µM): 104%
